Tests used:
Assay in all cases: KinaseProfiler
Assay type in all cases: biochemical
Conditions in all cases: 10 μM, ATP near Km
PKCbetaI = biological target: T1, PKCbetaI (Homo sapiens, UniProt P05771)
T1 construct: purchased Millipore, Inc. (KinaseProfiler service)
Summary of the method: (§1)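 Kinase activity was assessed with 10 μM compound under ATP-near-Km conditions specific to each enzyme. Duplicates were averaged and expressed relative to control as POC.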

Ron = biological target: T2, Ron (Homo sapiens, UniProt Q04912)
T2 construct: purchased Millipore, Inc. (KinaseProfiler service)
Summary of the method: as §1

EphB3 = biological target: T3, EphB3 (Homo sapiens, UniProt P54753)
T3 construct: purchased Millipore, Inc. (KinaseProfiler service)
Summary of the method: as §1

MST1 = biological target: T4, MST1 (Homo sapiens, UniProt Q13043)
T4 construct: purchased Millipore, Inc. (KinaseProfiler service)
T4 sequence (Q13043 whole entry): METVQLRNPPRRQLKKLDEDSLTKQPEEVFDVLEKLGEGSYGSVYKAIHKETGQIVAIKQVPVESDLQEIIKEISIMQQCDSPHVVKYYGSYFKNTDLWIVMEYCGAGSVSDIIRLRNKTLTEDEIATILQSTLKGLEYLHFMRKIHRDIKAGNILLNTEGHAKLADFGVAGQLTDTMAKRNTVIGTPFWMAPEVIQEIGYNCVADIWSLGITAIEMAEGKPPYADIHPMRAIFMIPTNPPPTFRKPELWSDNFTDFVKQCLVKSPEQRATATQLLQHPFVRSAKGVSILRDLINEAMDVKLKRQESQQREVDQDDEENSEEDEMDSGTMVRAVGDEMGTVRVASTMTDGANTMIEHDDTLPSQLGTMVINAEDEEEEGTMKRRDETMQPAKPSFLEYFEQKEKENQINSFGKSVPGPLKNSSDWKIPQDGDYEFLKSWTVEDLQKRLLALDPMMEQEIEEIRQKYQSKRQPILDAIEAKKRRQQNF
Summary of the method: as §1

MELK = biological target: T5, MELK (Homo sapiens, UniProt Q14680)
T5 construct: purchased Millipore, Inc. (KinaseProfiler service)
Summary of the method: as §1

FGFR3 = biological target: T6, FGFR3 (Homo sapiens, UniProt P22607)
T6 construct: purchased Millipore, Inc. (KinaseProfiler service)
Summary of the method: as §1

DRAK1 = biological target: T7, DRAK1 (Homo sapiens, UniProt Q9UEE5)
T7 construct: purchased Millipore, Inc. (KinaseProfiler service)
Summary of the method: as §1

MINK = biological target: T8, MINK (Homo sapiens, UniProt Q8N4C8)
T8 construct: purchased Millipore, Inc. (KinaseProfiler service)
Summary of the method: as §1

AKT2 = biological target: T9, AKT2 (Homo sapiens, UniProt P31751)
T9 construct: purchased Millipore (KinaseProfiler service)
Summary of the method: as §1

Met = biological target: T10, Met (Homo sapiens, UniProt P08581)
T10 construct: purchased Millipore, Inc. (KinaseProfiler service)
Summary of the method: as §1

FAK = biological target: T11, FAK (Homo sapiens, UniProt Q05397)
T11 construct: purchased Millipore, Inc. (KinaseProfiler service)
Summary of the method: as §1

SRPK1 = biological target: T12, SRPK1 (Homo sapiens, UniProt Q96SB4)
T12 construct: purchased Millipore, Inc. (KinaseProfiler service)
Summary of the method: as §1

MICK4_m = biological target: T13, MICK4_m (Mus musculus, UniProt P47809)
T13 construct: purchased Millipore, Inc. (KinaseProfiler service)
Summary of the method: as §1

PAK2 = biological target: T14, PAK2 (Homo sapiens, UniProt Q13177)
T14 construct: purchased Millipore, Inc. (KinaseProfiler service)
Summary of the method: as §1

MARK1 = biological target: T15, MARK1 (Homo sapiens, UniProt Q9P0L2)
T15 construct: purchased Millipore, Inc. (KinaseProfiler service)
Summary of the method: as §1

TBK1 = biological target: T16, TBK1 (Homo sapiens, UniProt Q9UHD2)
T16 construct: purchased Millipore, Inc. (KinaseProfiler service)
T16 sequence (Q9UHD2 whole entry): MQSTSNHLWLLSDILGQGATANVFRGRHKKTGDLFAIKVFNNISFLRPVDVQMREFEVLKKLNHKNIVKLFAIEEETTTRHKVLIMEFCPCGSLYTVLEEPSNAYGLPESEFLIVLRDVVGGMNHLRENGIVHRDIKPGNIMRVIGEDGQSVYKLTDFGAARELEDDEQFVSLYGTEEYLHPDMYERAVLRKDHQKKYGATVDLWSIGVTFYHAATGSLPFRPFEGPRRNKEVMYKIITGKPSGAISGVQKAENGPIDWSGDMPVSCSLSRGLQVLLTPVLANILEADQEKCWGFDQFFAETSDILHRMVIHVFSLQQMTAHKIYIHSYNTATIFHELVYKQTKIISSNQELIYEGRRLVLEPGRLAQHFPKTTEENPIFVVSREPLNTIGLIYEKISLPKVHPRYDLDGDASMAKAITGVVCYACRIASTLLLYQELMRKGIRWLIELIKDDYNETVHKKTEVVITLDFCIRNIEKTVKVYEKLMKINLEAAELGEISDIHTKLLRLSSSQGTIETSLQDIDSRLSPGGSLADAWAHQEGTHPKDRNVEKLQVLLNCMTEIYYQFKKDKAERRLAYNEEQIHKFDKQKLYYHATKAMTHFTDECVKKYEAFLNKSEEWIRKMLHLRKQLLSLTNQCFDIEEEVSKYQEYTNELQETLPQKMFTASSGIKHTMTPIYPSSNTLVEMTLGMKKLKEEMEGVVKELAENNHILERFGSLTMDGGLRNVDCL
Summary of the method: as §1

MAPKAP-K3 = biological target: T17, MAPKAP-K3 (Homo sapiens, UniProt Q16644)
T17 construct: purchased Millipore, Inc. (KinaseProfiler service)
Summary of the method: as §1

mTOR/FKBP12 = biological target: T18, mTOR/FKBP12 (Homo sapiens, UniProt P42345)
T18 construct: purchased Millipore, Inc. (KinaseProfiler service)
Summary of the method: as §1

EphA3 = biological target: T19, EphA3 (Homo sapiens, UniProt P29320)
T19 construct: purchased Millipore, Inc. (KinaseProfiler service)
Summary of the method: as §1

GRK6 = biological target: T20, GRK6 (Homo sapiens, UniProt P43250)
T20 construct: purchased Millipore, Inc. (KinaseProfiler service)
Summary of the method: as §1

PKCiota = biological target: T21, PKCiota (Homo sapiens, UniProt P41743)
T21 construct: purchased Millipore, Inc. (KinaseProfiler service)
Summary of the method: as §1

AURKA = biological target: T22, AURKA (Homo sapiens, UniProt O14965)
T22 construct: purchased Millipore (KinaseProfiler service)
Summary of the method: as §1

GRK5 = biological target: T23, GRK5 (Homo sapiens, UniProt P34947)
T23 construct: purchased Millipore, Inc. (KinaseProfiler service)
Summary of the method: as §1

PKCbetaII = biological target: T24, PKCbetaII (Homo sapiens, UniProt P05771)
T24 construct: purchased Millipore, Inc. (KinaseProfiler service)
Summary of the method: as §1

SIK = biological target: T25, SIK (Homo sapiens, UniProt P57059)
T25 construct: purchased Millipore, Inc. (KinaseProfiler service)
T25 sequence (P57059 whole entry): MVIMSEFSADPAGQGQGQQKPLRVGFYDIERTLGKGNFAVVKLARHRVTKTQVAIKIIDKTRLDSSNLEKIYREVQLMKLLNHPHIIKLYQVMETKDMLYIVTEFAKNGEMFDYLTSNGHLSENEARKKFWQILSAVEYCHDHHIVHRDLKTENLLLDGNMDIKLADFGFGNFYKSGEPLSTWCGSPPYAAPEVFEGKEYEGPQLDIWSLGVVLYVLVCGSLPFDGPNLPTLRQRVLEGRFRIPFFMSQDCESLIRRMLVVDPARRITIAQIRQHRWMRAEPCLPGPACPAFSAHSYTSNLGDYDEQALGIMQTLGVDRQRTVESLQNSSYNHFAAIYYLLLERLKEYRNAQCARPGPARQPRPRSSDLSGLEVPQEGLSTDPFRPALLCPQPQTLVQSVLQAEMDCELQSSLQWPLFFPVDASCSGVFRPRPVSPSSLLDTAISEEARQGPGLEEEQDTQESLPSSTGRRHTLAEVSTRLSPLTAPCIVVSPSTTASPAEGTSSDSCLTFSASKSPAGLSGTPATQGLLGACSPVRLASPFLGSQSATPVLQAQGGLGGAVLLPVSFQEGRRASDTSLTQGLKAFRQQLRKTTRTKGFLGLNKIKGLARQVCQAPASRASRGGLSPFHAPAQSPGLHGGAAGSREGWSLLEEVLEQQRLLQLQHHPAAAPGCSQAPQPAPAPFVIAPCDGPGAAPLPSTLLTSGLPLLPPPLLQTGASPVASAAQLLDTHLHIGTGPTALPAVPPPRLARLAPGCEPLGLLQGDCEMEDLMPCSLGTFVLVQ
Summary of the method: as §1

ULK2 = biological target: T26, ULK2 (Homo sapiens, UniProt Q8IYT8)
T26 construct: purchased Millipore, Inc. (KinaseProfiler service)
Summary of the method: as §1

LKB1 = biological target: T27, LKB1 (Homo sapiens, UniProt Q15831)
T27 construct: purchased Millipore, Inc. (KinaseProfiler service)
Summary of the method: as §1

Fgr = biological target: T28, Fgr (Homo sapiens, UniProt P09769)
T28 construct: purchased Millipore, Inc. (KinaseProfiler service)
Summary of the method: as §1

ALK4 = biological target: T29, ALK4 (Homo sapiens, UniProt P36896)
T29 construct: purchased Millipore (KinaseProfiler service)
Summary of the method: as §1

EphA5 = biological target: T30, EphA5 (Homo sapiens, UniProt P54756)
T30 construct: purchased Millipore, Inc. (KinaseProfiler service)
Summary of the method: as §1

Txk = biological target: T31, Txk (Homo sapiens, UniProt P42681)
T31 construct: purchased Millipore, Inc. (KinaseProfiler service)
Summary of the method: as §1

LOK = biological target: T32, LOK (Homo sapiens, UniProt O94804)
T32 construct: purchased Millipore, Inc. (KinaseProfiler service)
Summary of the method: as §1

WNK3 = biological target: T33, WNK3 (Homo sapiens, UniProt Q9BYP7)
T33 construct: purchased Millipore, Inc. (KinaseProfiler service)
T33 sequence (Q9BYP7 whole entry): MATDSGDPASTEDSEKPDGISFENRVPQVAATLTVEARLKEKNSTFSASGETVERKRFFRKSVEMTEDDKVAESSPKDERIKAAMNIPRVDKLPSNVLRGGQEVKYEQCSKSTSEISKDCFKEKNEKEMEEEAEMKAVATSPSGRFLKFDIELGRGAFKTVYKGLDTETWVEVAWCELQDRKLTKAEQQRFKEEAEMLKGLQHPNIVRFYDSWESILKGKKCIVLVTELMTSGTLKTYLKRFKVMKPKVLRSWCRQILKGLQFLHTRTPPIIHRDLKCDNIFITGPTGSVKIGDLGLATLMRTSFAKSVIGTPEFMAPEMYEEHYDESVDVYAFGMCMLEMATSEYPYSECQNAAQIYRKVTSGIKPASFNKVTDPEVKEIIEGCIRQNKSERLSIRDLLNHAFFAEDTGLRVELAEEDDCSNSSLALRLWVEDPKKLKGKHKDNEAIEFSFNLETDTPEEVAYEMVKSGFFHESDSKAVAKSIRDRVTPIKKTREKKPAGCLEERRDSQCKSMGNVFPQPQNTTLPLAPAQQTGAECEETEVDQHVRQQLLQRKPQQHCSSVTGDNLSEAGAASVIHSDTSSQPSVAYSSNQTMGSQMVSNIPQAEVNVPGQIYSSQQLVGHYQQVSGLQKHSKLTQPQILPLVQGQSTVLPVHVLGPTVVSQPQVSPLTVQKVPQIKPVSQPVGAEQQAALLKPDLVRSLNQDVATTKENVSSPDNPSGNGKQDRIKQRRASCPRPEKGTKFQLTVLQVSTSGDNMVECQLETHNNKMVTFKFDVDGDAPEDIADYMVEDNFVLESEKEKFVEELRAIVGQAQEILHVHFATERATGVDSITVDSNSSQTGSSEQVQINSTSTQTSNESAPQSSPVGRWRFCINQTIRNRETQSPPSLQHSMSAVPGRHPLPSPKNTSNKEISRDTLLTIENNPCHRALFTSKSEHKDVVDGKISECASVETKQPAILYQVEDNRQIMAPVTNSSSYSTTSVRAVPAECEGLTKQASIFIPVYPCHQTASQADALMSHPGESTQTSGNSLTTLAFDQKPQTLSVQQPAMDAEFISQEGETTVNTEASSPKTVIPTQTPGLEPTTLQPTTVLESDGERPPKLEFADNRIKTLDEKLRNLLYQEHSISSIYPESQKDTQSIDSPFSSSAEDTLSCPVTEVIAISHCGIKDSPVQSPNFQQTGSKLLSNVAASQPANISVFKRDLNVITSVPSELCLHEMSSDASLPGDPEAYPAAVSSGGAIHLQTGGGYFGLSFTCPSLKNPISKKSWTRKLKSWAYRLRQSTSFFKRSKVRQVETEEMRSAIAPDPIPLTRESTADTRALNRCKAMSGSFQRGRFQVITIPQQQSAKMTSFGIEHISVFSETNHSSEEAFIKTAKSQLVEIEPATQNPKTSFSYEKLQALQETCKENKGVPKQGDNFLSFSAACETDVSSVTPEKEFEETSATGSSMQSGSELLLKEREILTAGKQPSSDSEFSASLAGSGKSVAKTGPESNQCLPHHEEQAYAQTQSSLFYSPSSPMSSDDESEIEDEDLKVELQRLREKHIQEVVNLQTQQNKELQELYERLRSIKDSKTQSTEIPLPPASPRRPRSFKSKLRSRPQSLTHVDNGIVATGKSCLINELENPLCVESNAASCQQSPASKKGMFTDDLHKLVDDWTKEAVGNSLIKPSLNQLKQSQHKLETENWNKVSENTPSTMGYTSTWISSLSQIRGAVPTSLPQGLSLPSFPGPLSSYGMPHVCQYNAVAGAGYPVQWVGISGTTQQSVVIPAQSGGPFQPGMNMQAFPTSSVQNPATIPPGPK
Summary of the method: as §1

CDK7/cyclinH/MAT1 = biological target: T34, CDK7/cyclinH/MAT1 (Homo sapiens, UniProt P50613)
T34 construct: purchased Millipore, Inc. (KinaseProfiler service)
Summary of the method: as §1

ErbB4 = biological target: T35, ErbB4 (Homo sapiens, UniProt Q15303)
T35 construct: purchased Millipore, Inc. (KinaseProfiler service)
Summary of the method: as §1

TSSK2 = biological target: T36, TSSK2 (Homo sapiens, UniProt Q96PF2)
T36 construct: purchased Millipore, Inc. (KinaseProfiler service)
Summary of the method: as §1

CDK6/cyclinD3 = biological target: T37, CDK6/cyclinD3 (Homo sapiens, UniProt Q00534)
T37 construct: purchased Millipore, Inc. (KinaseProfiler service)
T37 sequence (Q00534 whole entry): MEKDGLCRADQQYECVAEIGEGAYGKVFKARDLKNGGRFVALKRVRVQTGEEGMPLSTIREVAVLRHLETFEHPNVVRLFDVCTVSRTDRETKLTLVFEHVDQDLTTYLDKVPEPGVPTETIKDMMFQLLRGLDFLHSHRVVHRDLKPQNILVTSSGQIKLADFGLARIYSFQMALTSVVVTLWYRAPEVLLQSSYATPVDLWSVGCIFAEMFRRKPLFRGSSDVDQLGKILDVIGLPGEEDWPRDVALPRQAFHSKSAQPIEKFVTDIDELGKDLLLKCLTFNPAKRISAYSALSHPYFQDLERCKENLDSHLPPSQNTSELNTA
T37 sequence (P30281 whole entry partner): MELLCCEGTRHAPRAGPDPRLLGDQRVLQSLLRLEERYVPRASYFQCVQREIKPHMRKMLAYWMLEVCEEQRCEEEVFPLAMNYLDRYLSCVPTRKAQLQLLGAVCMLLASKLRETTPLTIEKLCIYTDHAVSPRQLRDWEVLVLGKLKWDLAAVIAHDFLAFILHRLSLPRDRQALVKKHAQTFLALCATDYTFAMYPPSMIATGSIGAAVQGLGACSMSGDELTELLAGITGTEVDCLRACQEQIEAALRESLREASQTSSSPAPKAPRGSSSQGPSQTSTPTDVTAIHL
Summary of the method: as §1

p38alpha = biological target: T38, p38alpha (Homo sapiens, UniProt Q16539)
T38 construct: purchased Millipore, Inc. (KinaseProfiler service)
T38 sequence (Q16539 whole entry): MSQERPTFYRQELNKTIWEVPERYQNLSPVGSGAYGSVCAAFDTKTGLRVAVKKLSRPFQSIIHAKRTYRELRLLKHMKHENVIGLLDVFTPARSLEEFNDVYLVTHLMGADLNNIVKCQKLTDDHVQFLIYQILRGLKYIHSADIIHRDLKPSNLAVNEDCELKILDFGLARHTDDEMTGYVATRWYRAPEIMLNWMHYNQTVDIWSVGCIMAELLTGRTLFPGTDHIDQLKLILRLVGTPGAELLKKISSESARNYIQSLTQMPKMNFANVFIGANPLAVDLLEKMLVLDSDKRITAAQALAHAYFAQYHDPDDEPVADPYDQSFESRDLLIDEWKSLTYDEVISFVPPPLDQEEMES
Summary of the method: as §1

ARKS = biological target: T39, ARKS (Homo sapiens, UniProt O60285)
T39 construct: purchased Millipore (KinaseProfiler service)
Summary of the method: as §1

ERK2 = biological target: T40, ERK2 (Homo sapiens, UniProt P28482)
T40 construct: purchased Millipore, Inc. (KinaseProfiler service)
Summary of the method: as §1

Flt4 = biological target: T41, Flt4 (Homo sapiens, UniProt P35916)
T41 construct: purchased Millipore, Inc. (KinaseProfiler service)
Summary of the method: as §1

Question: How did the “Avg POC” value (PKCbetaI) turn out when `COCCCc1cc(Cl)c(Cl)cc1NC(=O)Nc1c(C)c(-c2cnn(C)c2)nn1-c1ccccc1` [Example 15, 1-(4,5-dichloro-2-(3-methoxypropyl)phenyl)-3-(1′,4-dimethyl-1-phenyl-1H,1′H-[3,4′-bipyrazol]-5-yl)urea] was run?
Answer: 106 POC

Question: And the “Avg POC” value (Ron)?
Answer: 108.5 POC

Question: What about the “Avg POC” value (EphB3) of the same compound?
Answer: 78.5 POC

Question: And the “Avg POC” value (MST1)?
Answer: 94.5 POC

Question: And the “Avg POC” value (MELK)?
Answer: 142.5 POC

Question: And the “Avg POC” value (FGFR3)?
Answer: 106.5 POC

Question: What about the “Avg POC” value (DRAK1) of the same compound?
Answer: 135.5 POC

Question: What about the “Avg POC” value (MINK) of the same compound?
Answer: 121.5 POC

Question: And the “Avg POC” value (AKT2)?
Answer: 166.5 POC

Question: What about the “Avg POC” value (Met) of the same compound?
Answer: 110.5 POC

Question: And the “Avg POC” value (FAK)?
Answer: 103.5 POC

Question: And the “Avg POC” value (SRPK1)?
Answer: 112.5 POC

Question: What about the “Avg POC” value (MICK4_m) of the same compound?
Answer: 137.5 POC

Question: And the “Avg POC” value (PAK2)?
Answer: 101.5 POC

Question: And the “Avg POC” value (MARK1)?
Answer: 107 POC

Question: And the “Avg POC” value (TBK1)?
Answer: 110 POC

Question: And the “Avg POC” value (MAPKAP-K3)?
Answer: 112.5 POC

Question: And the “Avg POC” value (mTOR/FKBP12)?
Answer: 97.5 POC

Question: And the “Avg POC” value (EphA3)?
Answer: 117 POC

Question: And the “Avg POC” value (GRK6)?
Answer: 103 POC

Question: And the “Avg POC” value (PKCiota)?
Answer: 68 POC

Question: What about the “Avg POC” value (AURKA) of the same compound?
Answer: 113.5 POC

Question: And the “Avg POC” value (GRK5)?
Answer: 90 POC

Question: What about the “Avg POC” value (PKCbetaII) of the same compound?
Answer: 99 POC

Question: And the “Avg POC” value (SIK)?
Answer: 137 POC

Question: What about the “Avg POC” value (ULK2) of the same compound?
Answer: 95 POC

Question: And the “Avg POC” value (LKB1)?
Answer: 90.5 POC

Question: And the “Avg POC” value (Fgr)?
Answer: 118 POC

Question: And the “Avg POC” value (ALK4)?
Answer: 113 POC

Question: What about the “Avg POC” value (EphA5) of the same compound?
Answer: 115.5 POC

Question: What about the “Avg POC” value (Txk) of the same compound?
Answer: 135.5 POC

Question: What about the “Avg POC” value (LOK) of the same compound?
Answer: 135 POC

Question: What about the “Avg POC” value (WNK3) of the same compound?
Answer: 108.5 POC

Question: And the “Avg POC” value (CDK7/cyclinH/MAT1)?
Answer: 106 POC

Question: What about the “Avg POC” value (ErbB4) of the same compound?
Answer: 118.5 POC

Question: What about the “Avg POC” value (TSSK2) of the same compound?
Answer: 114.5 POC

Question: What about the “Avg POC” value (CDK6/cyclinD3) of the same compound?
Answer: 111 POC

Question: And the “Avg POC” value (p38alpha)?
Answer: 100.5 POC

Question: What about the “Avg POC” value (ARKS) of the same compound?
Answer: 97.5 POC

Question: And the “Avg POC” value (ERK2)?
Answer: 108 POC

Question: And the “Avg POC” value (Flt4)?
Answer: 91 POC
